In ChEMBL document CHEMBL1149069, “SB-202742, a novel beta-lactamase inhibitor isolated from Spondias mombin” (J Nat Prod, 1994):
The source made the active and inactive calls. The calls are words filed in the database; no cut-off is given here.

Target: Beta-lactamase TEM-2 (Escherichia coli) (UniProt P62593)
Test: Inhibition of Escherichia coli W3110 beta-lactamase TEM2 assessed as inhibition of nitrocefin hydrolysis at 1 ug/ml pre-incubated for 5 mins by microtiter plate assay

`CC/C=C\C/C=C\C/C=C\CCCCCCCc1cccc(O)c1C(=O)O` was tested, and the Activity was “Active”.
